# From US7037905B2, “Pharmaceutical use of boronic acids and esters thereof” (Novo Nordisk A/S, priority 2002, dated 2006)
# Target: T1, hormone sensitive lipase (Homo sapiens, UniProt Q05469)
# T1 sequence (Q05469 1-1076): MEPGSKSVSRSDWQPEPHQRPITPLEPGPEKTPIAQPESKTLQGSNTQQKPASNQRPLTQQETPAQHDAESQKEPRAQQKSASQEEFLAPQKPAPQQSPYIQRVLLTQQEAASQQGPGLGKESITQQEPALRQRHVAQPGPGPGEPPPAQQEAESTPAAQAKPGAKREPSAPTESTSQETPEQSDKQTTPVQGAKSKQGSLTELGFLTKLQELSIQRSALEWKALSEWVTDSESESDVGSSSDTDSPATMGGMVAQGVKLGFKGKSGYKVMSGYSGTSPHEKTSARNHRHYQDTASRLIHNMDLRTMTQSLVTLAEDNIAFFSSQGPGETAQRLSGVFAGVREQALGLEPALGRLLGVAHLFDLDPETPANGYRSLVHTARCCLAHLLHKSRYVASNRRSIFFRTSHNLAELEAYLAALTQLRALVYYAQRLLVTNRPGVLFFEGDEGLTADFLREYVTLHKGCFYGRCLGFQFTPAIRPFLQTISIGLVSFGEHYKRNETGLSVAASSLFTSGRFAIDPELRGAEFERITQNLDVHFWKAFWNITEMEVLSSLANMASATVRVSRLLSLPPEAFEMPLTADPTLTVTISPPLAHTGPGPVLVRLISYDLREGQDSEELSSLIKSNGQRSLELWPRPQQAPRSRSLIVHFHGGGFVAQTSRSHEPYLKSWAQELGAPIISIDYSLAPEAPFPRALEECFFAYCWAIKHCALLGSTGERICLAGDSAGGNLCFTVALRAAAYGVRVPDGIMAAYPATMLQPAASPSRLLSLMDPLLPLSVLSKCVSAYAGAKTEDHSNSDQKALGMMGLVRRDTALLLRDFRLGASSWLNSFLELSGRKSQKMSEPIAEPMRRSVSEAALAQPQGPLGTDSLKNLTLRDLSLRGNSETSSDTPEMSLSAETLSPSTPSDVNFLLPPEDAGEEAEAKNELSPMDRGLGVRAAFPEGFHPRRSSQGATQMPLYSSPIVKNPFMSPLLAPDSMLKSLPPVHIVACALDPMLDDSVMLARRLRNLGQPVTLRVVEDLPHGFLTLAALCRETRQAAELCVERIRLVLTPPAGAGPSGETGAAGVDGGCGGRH
# Assay: TEST 3190.1 HSL-FL: percent inhibition of hormone sensitive lipase at 10 μM, fluorochrome-labeled triacylglyceride emulsion
# Type: biochemical
# Conditions: 10 μM sample concentration; percent activity relative to a non-inhibited sample; 30 min preincubation 25° C., 120 min at 37° C.
# Experimental: 3190.1: Assay for determination of percent inhibition of hormone sensitive lipase by compound at 10 μM sample concentration.
# A lipid emulsion with fluorochrome-labeled triacylglyceride and phospholipid is used as substrate with a standard concentration of highly purified HSL (12 μg/mL initial concentration corresponding to 600 ng/mL final concentration). BSA is added as product receptor. The transfer of the fluorochrome from the lipid phase to the water (BSA) phase changes the fluorescent properties of the fluorochrome. The changes can be monitored on a fluorimeter with an excitation wavelength of 450 nm and an emission wavelength of 545 nm.
# Compound and HSL (2 μL compound, 10 μL enzyme and 70 μL PED-BSA buffer) is pre-incubated for 30 min at 25° C. before addition of substrate (100 μL). Amount of formed product is measured after 120 min incubation at 37° C.
# Results are given as percent activity relative to a non-inhibited sample (no compound).
row,activity at 10 µM [%],SMILES
1,27,"CC1(C)COB(c2cccc(OC(F)(F)F)c2)OC1 [Example 20, 5,5-Dimethyl-2-(3-trifluoromethoxyphenyl)-[1,3,2]dioxaborinane]"
2,28,"CC1(C)OB(c2cccc(Br)c2)OC1(C)C [Example 25, 2-(3-Bromophenyl)-4,4,5,5-tetramethyl-[1,3,2]dioxaborolane]"
3,36,"CC1(C)OB(c2ccc(F)c(Cl)c2)OC1(C)C [Example 29, 2-(3-Chloro-4-fluorophenyl)-4,4,5,5-tetramethyl-[1,3,2]dioxaborolane]"
4,46,"CC1(C)COB(c2cccc(F)c2)OC1 [Example 23, 2-(3-Fluorophenyl)-5,5-dimethyl-[1,3,2]dioxaborinane]"
5,98,"CN(C)C(=O)c1ccc(B(O)O)cc1 [Example 77, 4-(N,N-DIMETHYLCARBAMOYL)PHENYLBORONIC ACID]"
6,31,"CC1(C)COB(c2cccc(C(F)(F)F)c2)OC1 [Example 11, 5,5-Dimethyl-2-(3-trifluoromethylphenyl)-[1,3,2]dioxaborinane]"
7,100,"OB(O)c1ccc2[nH]ccc2c1 [Example 75, 5-INDOLYL BORONIC ACID]"
8,52,"Cc1csc(B2OC(C)(C)C(C)(C)O2)c1 [Example 32, 4,4,5,5-Tetramethyl-2-(4-methylthiophen-2-yl)-[1,3,2]dioxaborolane]"
9,39,"Fc1ccc(B2OCCNCCO2)cc1Cl [Example 15, 2-(3-Chloro-4-fluorophenyl)-[1,3,6,2]dioxazaborocane]"
10,58,"Cc1csc(B2OCC(C)(C)CO2)c1 [Example 24, 5,5-Dimethyl-2-(4-methylthiophen-2-yl)-[1,3,2]dioxaborinane]"
11,43,"CC1(C)OB(c2cc(Cl)cc(Cl)c2)OC1(C)C [Example 28, 2-(3,5-Dichlorophenyl)-4,4,5,5-tetramethyl-[1,3,2]dioxaborolane]"
12,27,"CC1(C)OB(c2cccc(C(F)(F)F)c2)OC1(C)C [Example 31, 4,4,5,5-Tetramethyl-2-(3-trifluoromethylphenyl)-[1,3,2]dioxaborolane]"
13,80,"Fc1cccc(B2OCCNCCO2)c1 [Example 7, 2-(3-Fluorophenyl)-[1,3,6,2]dioxazaborocane]"
14,26,"FC(F)(F)Oc1cccc(B2OCCNCCO2)c1 [Example 13, 2-(3-Trifluoromethoxyphenyl)-[1,3,6,2]dioxazaborocane]"
15,42,"CC1(C)COB(c2cc(Cl)cc(Cl)c2)OC1 [Example 21, 2-(3,5-Dichlorophenyl)-5,5-dimethyl-[1,3,2]dioxaborinane]"
16,32,"Fc1cc(B2OCCNCCO2)cc(F)c1F [Example 9, 2-(3,4,5-Trifluorophenyl)-[1,3,6,2]dioxazaborocane]"
17,80,"O=Cc1cccc(B(O)O)c1 [Example 76, 3-Formylphenylboronic acid]"
18,34,"Brc1cccc(B2OCCNCCO2)c1 [Example 5, 2-(3-Bromophenyl)-[1,3,6,2]dioxazaborocane]"

row,activity at 10 µM [%],SMILES
1,32,"Fc1cc(F)cc(B2OCCNCCO2)c1 [Example 4, 2-(3,5-Difluorophenyl)-[1,3,6,2]dioxazaborocane]"
2,40,"Clc1cc(Cl)cc(B2OCCNCCO2)c1 [Example 14, 2-(3,5-Dichlorophenyl)-[1,3,6,2]dioxazaborocane]"
3,29,"CC1(C)OB(c2cccc(OC(F)(F)F)c2)OC1(C)C [Example 27, 4,4,5,5-Tetramethyl-2-(3-trifluoromethoxyphenyl)-[1,3,2]dioxaborolane]"
4,29,"FC(F)(F)c1cccc(B2OCCNCCO2)c1 [Example 8, 2-(3-Trifluoromethylphenyl)-[1,3,6,2]dioxazaborocane]"
5,61,"Cc1csc(B2OCCNCCO2)c1 [Example 16, 2-(4-Methylthiophen-2-yl)-[1,3,6,2]dioxazaborocane]"
6,40,"CC1(C)OB(c2cccc(Cl)c2)OC1(C)C [Example 30, 2-(3-Chlorophenyl)-4,4,5,5-tetramethyl-[1,3,2]dioxaborolane]"
7,39,"COc1ccc(Cl)cc1B1OCCNCCO1 [Example 12, 2-(5-Chloro-2-methoxyphenyl)-[1,3,6,2]dioxazaborocane]"
8,53,"OB(O)c1ccc(Cl)c(Cl)c1 [Example 74, 3,4-Dichlorophenylboronic acid]"
9,39,"CC1(C)COB(c2cccc(Cl)c2)OC1 [Example 10, 2-(3-Chlorophenyl)-5,5-dimethyl-[1,3,2]dioxaborinane]"
10,17,"CC1(C)COB(c2ccc(Cl)s2)OC1 [Example 2, 2-(5-Chlorothiophen-2-yl)-5,5-dimethyl-[1,3,2]dioxaborinane]"
11,19,"Clc1ccc(B2OCCNCCO2)s1 [Example 3, 2-(5-Chlorothiophen-2-yl)-[1,3,6,2]dioxazaborocane]"
12,49,"CC1(C)COB(c2cc(F)c(F)c(F)c2)OC1 [Example 19, 5,5-Dimethyl-2-(3,4,5-trifluorophenyl)-[1,3,2]dioxaborinane]"
13,36,"Clc1cccc(B2OCCNCCO2)c1 [Example 6, 2-(3-Chlorophenyl)-[1,3,6,2]dioxazaborocane]"
14,43,"COc1ccc(Cl)cc1B1OCC(C)(C)CO1 [Example 18, 2-(5-Chloro-2-methoxyphenyl)-5,5-dimethyl-[1,3,2]dioxaborinane]"
15,11,"CC1(C)COB(c2cccc(Br)c2)OC1 [Example 17, 2-(3-Bromophenyl)-5,5-dimethyl-[1,3,2]dioxaborinane]"
16,31,"CC1(C)COB(c2ccc(F)c(Cl)c2)OC1 [Example 22, 2-(3-Chloro-4-fluorophenyl)-5,5-dimethyl-[1,3,2]dioxaborinane]"
17,17,"CC1(C)OB(c2ccc(Cl)s2)OC1(C)C [Example 1, 2-(5-Chlorothiophen-2-yl)-4,4,5,5-tetramethyl-[1,3,2]dioxaborolane]"
